# In patent publication US9682995B2, “Amino-substituted isothiazoles” (BAYER PHARMA AKTIENGESELLSCHAFT, priority 2013, dated 2017):
# Tests used:
# Assay in all cases: Kinase Profiling (KINOMEscan)
# Type in all cases: binding
# [1] = molecular target: 456 kinases (of these 395 non-mutant kinases) (Homo sapiens, UniProt Q96PY6); details: NEK1; 10 μM
# [2] = molecular target: 456 kinases (of these 395 non-mutant kinases) (Homo sapiens, UniProt O43283); details: LZK; 10 μM
# [3] = molecular target: 456 kinases (of these 395 non-mutant kinases) (Homo sapiens, UniProt Q8TDR2); details: STK35; 10 μM
# [4] = molecular target: 456 kinases (of these 395 non-mutant kinases) (Homo sapiens, UniProt Q8TDX7); details: NEK7; 10 μM
# [5] = molecular target: 456 kinases (of these 395 non-mutant kinases) (Homo sapiens, UniProt P45985); details: MEK4; 10 μM
# [6] = molecular target: 456 kinases (of these 395 non-mutant kinases) (Homo sapiens, UniProt O94804); details: LOK; 10 μM
# [7] = molecular target: 456 kinases (of these 395 non-mutant kinases) (Homo sapiens, UniProt P53671); details: LIMK2; 10 μM
# [8] = molecular target: 456 kinases (of these 395 non-mutant kinases) (Homo sapiens, UniProt Q05397); details: FAK; 10 μM
# [9] = molecular target: 456 kinases (of these 395 non-mutant kinases) (Homo sapiens, UniProt P31152); details: ERK4; 10 μM
# [10] = molecular target: 456 kinases (of these 395 non-mutant kinases) (Homo sapiens, UniProt Q7KZI7); details: MARK2; 10 μM
# [11] = molecular target: 456 kinases (of these 395 non-mutant kinases) (Homo sapiens, UniProt P35916); details: FLT4; 10 μM
# [12] = molecular target: 456 kinases (of these 395 non-mutant kinases) (Homo sapiens, UniProt Q7L7X3); details: TAOK1; 10 μM
# [13] = molecular target: 456 kinases (of these 395 non-mutant kinases) (Homo sapiens, UniProt Q9NRH2); details: SNRK; 10 μM
# [14] = molecular target: 456 kinases (of these 395 non-mutant kinases) (Homo sapiens, UniProt P42336, E545A); details: PIK3CA(E545A); 10 μM
# [15] = molecular target: 456 kinases (of these 395 non-mutant kinases) (Homo sapiens, UniProt P07947); details: YES; 10 μM
# [16] = molecular target: 456 kinases (of these 395 non-mutant kinases) (Homo sapiens, UniProt Q16584); details: MLK3; 10 μM
# [17] = molecular target: 456 kinases (of these 395 non-mutant kinases) (Homo sapiens, UniProt Q9Y5S2); details: MRCKB; 10 μM
# [18] = molecular target: 456 kinases (of these 395 non-mutant kinases) (Homo sapiens, UniProt P15735); details: PHKG2; 10 μM
# [19] = molecular target: 456 kinases (of these 395 non-mutant kinases) (Homo sapiens, UniProt Q9HCP0); details: CSNK1G1; 10 μM
# [20] = molecular target: 456 kinases (of these 395 non-mutant kinases) (Homo sapiens, UniProt P51617); details: IRAKI; 10 μM
# [21] = molecular target: 456 kinases (of these 395 non-mutant kinases) (Homo sapiens, UniProt Q9NYL2); details: ZAK; 10 μM
# [22] = molecular target: 456 kinases (of these 395 non-mutant kinases) (Homo sapiens, UniProt Q13464); details: ROCK1; 10 μM
# [23] = molecular target: 456 kinases (of these 395 non-mutant kinases) (Homo sapiens, UniProt Q9C098); details: DCAMKL3; 10 μM
# [24] = molecular target: 456 kinases (of these 395 non-mutant kinases) (Homo sapiens, UniProt P42679); details: CTK; 10 μM
# [25] = molecular target: 456 kinases (of these 395 non-mutant kinases) (Homo sapiens, UniProt Q02779); details: MLK2; 10 μM
# [26] = molecular target: 456 kinases (of these 395 non-mutant kinases) (Homo sapiens, UniProt Q13470); details: TNK1; 10 μM
# [27] = molecular target: 456 kinases (of these 395 non-mutant kinases) (Homo sapiens, UniProt P07332); details: FES; 10 μM
# [28] = molecular target: 456 kinases (of these 395 non-mutant kinases) (Homo sapiens, UniProt Q99683); details: ASK1; 10 μM
# [29] = molecular target: 456 kinases (of these 395 non-mutant kinases) (Homo sapiens, UniProt P43405); details: SYK; 10 μM
# [30] = molecular target: 456 kinases (of these 395 non-mutant kinases) (Homo sapiens, UniProt P78362); details: SRPK2; 10 μM
# [31] = molecular target: 456 kinases (of these 395 non-mutant kinases) (Homo sapiens, UniProt Q9P0L2); details: MARK1; 10 μM
# [32] = molecular target: 456 kinases (of these 395 non-mutant kinases) (Homo sapiens, UniProt P57058); details: HUNK; 10 μM
# [33] = molecular target: 456 kinases (of these 395 non-mutant kinases) (Homo sapiens, UniProt Q9H3Y6); details: SRMS; 10 μM
# Chain of 456 kinases (of these 395 non-mutant kinases) (Homo sapiens, UniProt Q9NYL2) (Q9NYL2 2-800 limits assumed, change not shown): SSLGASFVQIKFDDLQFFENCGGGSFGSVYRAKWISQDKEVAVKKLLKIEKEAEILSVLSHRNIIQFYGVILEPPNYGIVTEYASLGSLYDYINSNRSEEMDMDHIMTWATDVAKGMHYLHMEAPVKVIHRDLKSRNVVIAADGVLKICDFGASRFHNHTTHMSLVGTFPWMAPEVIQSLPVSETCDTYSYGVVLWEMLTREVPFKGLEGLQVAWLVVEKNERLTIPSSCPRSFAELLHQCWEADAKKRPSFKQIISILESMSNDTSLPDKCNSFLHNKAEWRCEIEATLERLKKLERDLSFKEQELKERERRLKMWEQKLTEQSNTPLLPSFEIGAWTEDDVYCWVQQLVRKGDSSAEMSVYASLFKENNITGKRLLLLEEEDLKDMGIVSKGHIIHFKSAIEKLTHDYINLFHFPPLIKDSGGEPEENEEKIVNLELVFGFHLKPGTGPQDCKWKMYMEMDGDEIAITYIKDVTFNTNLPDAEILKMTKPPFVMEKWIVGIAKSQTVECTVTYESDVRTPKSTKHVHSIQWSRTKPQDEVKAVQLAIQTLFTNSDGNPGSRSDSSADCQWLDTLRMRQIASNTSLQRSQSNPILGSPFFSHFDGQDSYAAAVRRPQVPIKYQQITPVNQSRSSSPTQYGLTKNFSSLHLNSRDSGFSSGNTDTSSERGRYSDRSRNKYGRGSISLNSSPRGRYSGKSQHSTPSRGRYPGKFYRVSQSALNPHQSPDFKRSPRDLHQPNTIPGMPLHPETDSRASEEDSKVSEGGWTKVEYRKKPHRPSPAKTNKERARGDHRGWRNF
# Chain of 456 kinases (of these 395 non-mutant kinases) (Homo sapiens, UniProt P07947) (P07947 2-543 limits assumed, change not shown): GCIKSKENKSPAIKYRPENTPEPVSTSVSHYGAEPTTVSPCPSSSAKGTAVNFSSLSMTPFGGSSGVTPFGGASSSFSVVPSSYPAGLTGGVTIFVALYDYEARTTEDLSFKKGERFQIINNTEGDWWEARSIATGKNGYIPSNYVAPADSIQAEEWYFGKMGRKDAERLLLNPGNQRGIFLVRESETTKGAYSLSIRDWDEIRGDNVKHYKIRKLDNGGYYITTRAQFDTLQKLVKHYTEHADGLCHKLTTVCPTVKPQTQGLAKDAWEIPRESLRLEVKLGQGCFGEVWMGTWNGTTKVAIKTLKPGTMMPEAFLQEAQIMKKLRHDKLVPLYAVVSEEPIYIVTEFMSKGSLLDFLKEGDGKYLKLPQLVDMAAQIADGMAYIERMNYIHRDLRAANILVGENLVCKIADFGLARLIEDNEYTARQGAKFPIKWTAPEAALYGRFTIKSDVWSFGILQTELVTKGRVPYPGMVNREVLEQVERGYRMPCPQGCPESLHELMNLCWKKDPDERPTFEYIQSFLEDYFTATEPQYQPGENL
# Chain of 456 kinases (of these 395 non-mutant kinases) (Homo sapiens, UniProt Q05397) (Q05397 2-1052 limits assumed, change not shown): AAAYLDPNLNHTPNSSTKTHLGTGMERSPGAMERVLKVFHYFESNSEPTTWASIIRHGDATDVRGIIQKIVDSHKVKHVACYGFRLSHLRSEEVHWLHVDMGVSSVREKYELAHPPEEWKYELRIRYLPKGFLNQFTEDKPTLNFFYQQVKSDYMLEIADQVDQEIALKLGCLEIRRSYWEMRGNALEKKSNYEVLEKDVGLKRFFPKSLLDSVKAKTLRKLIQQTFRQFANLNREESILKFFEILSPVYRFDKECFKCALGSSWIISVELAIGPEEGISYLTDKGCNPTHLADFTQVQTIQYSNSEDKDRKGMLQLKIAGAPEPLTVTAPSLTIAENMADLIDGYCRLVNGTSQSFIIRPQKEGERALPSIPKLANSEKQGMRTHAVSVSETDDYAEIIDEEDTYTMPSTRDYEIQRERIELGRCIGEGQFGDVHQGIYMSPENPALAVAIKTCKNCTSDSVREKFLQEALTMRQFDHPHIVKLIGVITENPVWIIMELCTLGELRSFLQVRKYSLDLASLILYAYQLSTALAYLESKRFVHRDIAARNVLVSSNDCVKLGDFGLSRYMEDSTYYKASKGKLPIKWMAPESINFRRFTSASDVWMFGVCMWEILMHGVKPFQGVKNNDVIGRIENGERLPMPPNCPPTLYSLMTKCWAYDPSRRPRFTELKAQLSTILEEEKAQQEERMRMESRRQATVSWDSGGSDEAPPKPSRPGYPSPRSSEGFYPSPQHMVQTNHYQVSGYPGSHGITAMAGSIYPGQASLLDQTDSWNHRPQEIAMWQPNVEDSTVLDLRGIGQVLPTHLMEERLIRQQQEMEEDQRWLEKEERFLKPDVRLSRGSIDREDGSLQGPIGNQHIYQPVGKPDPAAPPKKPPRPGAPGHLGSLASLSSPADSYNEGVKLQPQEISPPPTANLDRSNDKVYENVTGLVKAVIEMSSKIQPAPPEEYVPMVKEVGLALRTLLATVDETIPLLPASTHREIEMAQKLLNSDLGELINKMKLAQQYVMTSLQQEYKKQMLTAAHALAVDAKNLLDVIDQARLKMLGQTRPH
# Chain of 456 kinases (of these 395 non-mutant kinases) (Homo sapiens, UniProt P45985) (P45985 2-399 limits assumed, change not shown): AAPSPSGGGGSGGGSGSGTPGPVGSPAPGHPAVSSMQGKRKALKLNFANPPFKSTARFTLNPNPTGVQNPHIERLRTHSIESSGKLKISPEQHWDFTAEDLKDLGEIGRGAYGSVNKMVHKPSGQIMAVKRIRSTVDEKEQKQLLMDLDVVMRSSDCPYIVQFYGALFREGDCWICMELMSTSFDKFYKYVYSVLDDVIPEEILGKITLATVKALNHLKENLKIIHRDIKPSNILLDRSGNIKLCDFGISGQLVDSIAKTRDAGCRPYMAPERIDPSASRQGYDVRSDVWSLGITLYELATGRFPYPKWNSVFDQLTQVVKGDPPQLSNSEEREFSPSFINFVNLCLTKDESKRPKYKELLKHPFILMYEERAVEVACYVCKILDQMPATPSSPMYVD
# Chain of 456 kinases (of these 395 non-mutant kinases) (Homo sapiens, UniProt P35916) (P35916 25-1363 limits assumed, change not shown): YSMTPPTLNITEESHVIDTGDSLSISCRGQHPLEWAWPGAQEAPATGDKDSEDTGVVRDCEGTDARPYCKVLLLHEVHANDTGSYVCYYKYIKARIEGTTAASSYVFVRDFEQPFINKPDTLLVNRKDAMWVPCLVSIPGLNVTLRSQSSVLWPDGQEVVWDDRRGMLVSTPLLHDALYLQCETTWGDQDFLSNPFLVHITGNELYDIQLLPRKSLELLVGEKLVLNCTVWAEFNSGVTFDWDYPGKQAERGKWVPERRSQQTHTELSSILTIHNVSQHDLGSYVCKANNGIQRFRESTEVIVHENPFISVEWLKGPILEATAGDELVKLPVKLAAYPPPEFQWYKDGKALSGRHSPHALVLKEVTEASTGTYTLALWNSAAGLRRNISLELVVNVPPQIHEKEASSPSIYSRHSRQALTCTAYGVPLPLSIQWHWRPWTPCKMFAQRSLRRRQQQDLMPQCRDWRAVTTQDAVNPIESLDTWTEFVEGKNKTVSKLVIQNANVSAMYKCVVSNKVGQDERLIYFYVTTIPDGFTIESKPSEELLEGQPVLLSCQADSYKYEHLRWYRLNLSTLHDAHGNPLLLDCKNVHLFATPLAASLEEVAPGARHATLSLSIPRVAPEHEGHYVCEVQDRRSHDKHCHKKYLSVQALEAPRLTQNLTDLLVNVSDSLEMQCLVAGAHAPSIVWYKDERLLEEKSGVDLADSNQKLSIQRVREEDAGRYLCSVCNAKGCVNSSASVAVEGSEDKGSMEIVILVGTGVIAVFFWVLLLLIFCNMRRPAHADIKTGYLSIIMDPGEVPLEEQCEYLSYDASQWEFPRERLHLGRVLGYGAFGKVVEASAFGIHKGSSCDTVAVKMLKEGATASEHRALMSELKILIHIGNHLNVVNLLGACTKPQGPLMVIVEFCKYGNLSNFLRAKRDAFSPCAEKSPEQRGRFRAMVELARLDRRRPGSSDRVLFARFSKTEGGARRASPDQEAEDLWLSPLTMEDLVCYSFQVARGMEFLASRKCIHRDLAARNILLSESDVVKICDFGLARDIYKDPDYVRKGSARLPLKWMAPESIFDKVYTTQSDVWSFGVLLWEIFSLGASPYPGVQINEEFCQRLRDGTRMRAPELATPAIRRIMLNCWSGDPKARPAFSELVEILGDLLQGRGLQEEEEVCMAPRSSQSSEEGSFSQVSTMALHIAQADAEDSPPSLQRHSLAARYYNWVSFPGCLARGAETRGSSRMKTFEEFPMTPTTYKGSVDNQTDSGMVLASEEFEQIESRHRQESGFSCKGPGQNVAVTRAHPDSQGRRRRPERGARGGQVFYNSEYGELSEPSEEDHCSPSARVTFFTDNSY
compound,measurement,setting,value
"CCc1ccccc1NC(=O)c1c(C)nsc1Nc1cnc2cc(F)ccc2n1 [Example 20, N-(2-Ethylphenyl)-5-[(6-fluoroquinoxalin-2-yl)amino]-3-methyl-1,2-thiazole-4-carboxamide]",% Ctrl @ 10 μM,[1],100 % Ctrl
same,% Ctrl @ 10 μM,[2],88 % Ctrl
same,% Ctrl @ 10 μM,[3],84 % Ctrl
same,% Ctrl @ 10 μM,[4],79 % Ctrl
same,% Ctrl @ 10 μM,[5],67 % Ctrl
same,% Ctrl @ 10 μM,[6],100 % Ctrl
same,% Ctrl @ 10 μM,[7],94 % Ctrl
same,% Ctrl @ 10 μM,[8],94 % Ctrl
same,% Ctrl @ 10 μM,[9],88 % Ctrl
same,% Ctrl @ 10 μM,[10],83 % Ctrl
same,% Ctrl @ 10 μM,[11],87 % Ctrl
same,% Ctrl @ 10 μM,[12],100 % Ctrl
same,% Ctrl @ 10 μM,[13],100 % Ctrl
same,% Ctrl @ 10 μM,[14],95 % Ctrl
same,% Ctrl @ 10 μM,[15],90 % Ctrl
same,% Ctrl @ 10 μM,[16],90 % Ctrl
same,% Ctrl @ 10 μM,[17],61 % Ctrl
same,% Ctrl @ 10 μM,[18],99 % Ctrl
same,% Ctrl @ 10 μM,[19],90 % Ctrl
same,% Ctrl @ 10 μM,[20],100 % Ctrl
same,% Ctrl @ 10 μM,[21],78 % Ctrl
same,% Ctrl @ 10 μM,[22],81 % Ctrl
same,% Ctrl @ 10 μM,[23],100 % Ctrl
same,% Ctrl @ 10 μM,[24],61 % Ctrl
same,% Ctrl @ 10 μM,[25],78 % Ctrl
same,% Ctrl @ 10 μM,[26],86 % Ctrl
same,% Ctrl @ 10 μM,[27],94 % Ctrl
same,% Ctrl @ 10 μM,[28],90 % Ctrl
same,% Ctrl @ 10 μM,[29],90 % Ctrl
same,% Ctrl @ 10 μM,[30],100 % Ctrl
same,% Ctrl @ 10 μM,[31],97 % Ctrl
same,% Ctrl @ 10 μM,[32],93 % Ctrl
same,% Ctrl @ 10 μM,[33],100 % Ctrl
